Our source for the EC50, Activity and IC50 values is ChEMBL document CHEMBL5390210, “Discovery of novel indazole derivatives as SOS1 agonists that activate KRAS signaling” (Bioorg Med Chem, 2023).

In assay [1] the target is T1, Son of sevenless homolog 1 (Homo sapiens, UniProt Q07889).
T1 sequence (Q07889 whole entry): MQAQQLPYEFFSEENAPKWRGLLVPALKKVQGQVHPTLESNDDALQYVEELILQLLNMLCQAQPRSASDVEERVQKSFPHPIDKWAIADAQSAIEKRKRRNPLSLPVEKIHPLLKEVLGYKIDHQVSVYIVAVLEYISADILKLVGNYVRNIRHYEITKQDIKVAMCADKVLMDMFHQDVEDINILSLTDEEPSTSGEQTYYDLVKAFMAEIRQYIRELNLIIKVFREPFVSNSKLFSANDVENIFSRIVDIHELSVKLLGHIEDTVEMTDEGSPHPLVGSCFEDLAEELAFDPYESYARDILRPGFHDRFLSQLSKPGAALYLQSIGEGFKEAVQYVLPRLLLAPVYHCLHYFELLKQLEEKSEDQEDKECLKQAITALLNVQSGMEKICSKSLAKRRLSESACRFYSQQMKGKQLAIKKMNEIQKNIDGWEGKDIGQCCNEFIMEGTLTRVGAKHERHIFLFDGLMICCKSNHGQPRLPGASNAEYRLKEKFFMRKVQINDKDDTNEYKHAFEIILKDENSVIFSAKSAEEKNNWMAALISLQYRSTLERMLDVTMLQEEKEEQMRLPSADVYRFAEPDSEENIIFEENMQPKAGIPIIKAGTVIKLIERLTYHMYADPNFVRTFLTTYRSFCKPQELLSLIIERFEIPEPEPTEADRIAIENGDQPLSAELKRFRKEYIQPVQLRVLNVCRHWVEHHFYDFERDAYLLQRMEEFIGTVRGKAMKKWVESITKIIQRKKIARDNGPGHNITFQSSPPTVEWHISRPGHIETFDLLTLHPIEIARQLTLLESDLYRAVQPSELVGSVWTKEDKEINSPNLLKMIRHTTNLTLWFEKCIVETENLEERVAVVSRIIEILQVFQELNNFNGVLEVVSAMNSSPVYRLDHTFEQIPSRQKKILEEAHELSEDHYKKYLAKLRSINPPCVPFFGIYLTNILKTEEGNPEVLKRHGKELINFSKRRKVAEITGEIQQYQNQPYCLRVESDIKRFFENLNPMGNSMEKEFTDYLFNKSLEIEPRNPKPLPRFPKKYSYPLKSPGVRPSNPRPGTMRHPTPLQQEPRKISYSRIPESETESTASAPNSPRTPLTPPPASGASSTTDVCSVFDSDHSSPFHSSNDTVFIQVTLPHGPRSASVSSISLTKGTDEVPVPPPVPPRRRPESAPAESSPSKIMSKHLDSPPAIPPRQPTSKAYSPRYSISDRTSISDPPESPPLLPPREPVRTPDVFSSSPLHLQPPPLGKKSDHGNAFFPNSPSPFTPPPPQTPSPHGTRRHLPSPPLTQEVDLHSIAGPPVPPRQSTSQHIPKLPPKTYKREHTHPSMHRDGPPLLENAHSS
Kind of assay: Agonist activity at SOS1 in human HeLa cells expressing wild type KRAS assessed as increase in p-ERK level incubated for 30 mins by Western blot analysis. Type of assay: cell-based. In general terms: A western blot detects proteins with antibodies after separation by electrophoresis.

Assay [2] concerns NCI-H358. Put plainly: Binding affinity to Pan-Ras GTPase in human NCI-H358 cells expressing KRAS G12C mutant assessed as increase in thermal stability at 37 to 60 degreeC at 10 uM incubated for 1 hr by CETSA. The format is cell-based.
Assay [3] relates to HeLa. Put plainly: Binding affinity to Pan-Ras GTPase in human HeLa cells expressing wild type KRAS assessed as increase in thermal stability at 37 to 60 degreeC at 10 uM incubated for 1 hr by CETSA. Type of assay: cell-based.
Assay [4] relates to NCI-H358. Kind of assay: Antiproliferative activity against human NCI-H358 cells expressing KRAS G12C mutant assessed as inhibition of cell growth incubated for 72 hrs by CCK-8 assay. The format is functional, cell-based. As to conditions: NCI-H358, 72 h. (Formazan colour is commonly taken as a measure of viable cells.)
The test system of assay [5] is A549. Put plainly: Antiproliferative activity against human A549 cells expressing KRAS G12S mutant assessed as inhibition of cell growth incubated for 72 hrs by CCK-8 assay. The format is functional, cell-based. As to conditions: A549, 72 h.
Assay [6] deals with T2, Son of sevenless homolog 1 (Homo sapiens) (UniProt Q07889).
T2 sequence (whole entry): T1 sequence (Q07889 whole entry)
Kind of assay: Agonist activity at SOS1 in human HeLa cells assessed as activation of p-ERK1/2 at 3.1 to 25 uM incubated for 30 mins by immunoblot analysis. The format is cell-based. As to conditions: filed as agonist, dose 3.1-25 µM.

Assay [7] concerns the target T2, Son of sevenless homolog 1 (Homo sapiens). Put plainly: Agonist activity at SOS1 in human HeLa cells with siRNA-mediated SOS1 knockdown assessed as activation of p-ERK1/2 at <25 uM incubated for 30 mins by immunoblot analysis. The format is cell-based.
For assay [8] the target is unchanged. Kind of assay: Agonist activity at SOS1 in human HeLa cells expressing wild type KRAS assessed as increase in p-ERK1/2 level at T202/Y204 residue at 0 to 12.5 uM incubated for 30 mins by Western blot analysis. The format is cell-based. As to conditions: filed as agonist, dose 0-12.5 µM.
Assay [9] has the same target. Put plainly: Agonist activity at SOS1 in human HeLa cells expressing wild type KRAS assessed as increase in p-ERK1/2 level at T202/Y204 residue over 25 uM incubated for 30 mins by Western blot analysis. The format is cell-based.
The target is the same in assay [10]. Kind of assay: Binding affinity to SOS1 in human HeLa cells expressing wild type KRAS assessed as increase in thermal stability at 37 to 52 degreeC at 10 uM incubated for 1 hr by CETSA. The format is cell-based.
For assay [11] the target is unchanged. Put plainly: Binding affinity to SOS1 in human NCI-H358 cells expressing KRAS G12C mutant assessed as increase in thermal stability at 37 to 52 degreeC at 10 uM incubated for 1 hr by CETSA. Type of assay: cell-based.
The subject of assay [12] is HeLa. Kind of assay: Antiproliferative activity against human HeLa cells expressing wild type KRAS assessed as inhibition of cell growth incubated for 72 hrs by CCK-8 assay. Type of assay: functional, cell-based.
Assay [13] addresses T2, Son of sevenless homolog 1 (Homo sapiens). Put plainly: Agonist activity at SOS1 in human HeLa cells expressing wild type KRAS assessed as increase in ERK1/2 phosphorylation by measuring increase in RAS-GTP level incubated for 30 mins by Western blot based pull down assay. The following applies: filed as agonist, dose 0-25 µM. The format is cell-based.
Assay [14] deals with NCI-H358. Put plainly: Activation of RAS signaling pathway in human NCI-H358 cells expressing KRAS G12C mutant assessed as upregulation of p-ERK level incubated for 4 hrs by Western blot analysis. Type of assay: cell-based. The following applies: filed as activator, dose 0-20 µM.

The structures appear in SMILES notation. pEC50, pIC50: −log10 of the molar value. Calls of active or inactive are those of the source. No cut-off for these calls is given here.

One may read the pEC50 as the EC50 on a negative log10 scale, so that one unit is a factor of ten. As a reminder, the pIC50 is −log10 of the IC50, conventionally taken in molar units.

As for `C=CC(=O)N1CC2(CC(n3nc(-c4ccc5c(cnn5C)c4)c4cc(-c5cn[nH]c5)ccc43)C2)C1`, the pEC50 in assay [1] is 5.05.

In the case of `C=CC(=O)N1CC2(CC(n3nc(C(=O)Nc4ccc5c(cnn5C)c4)c4ccccc43)C2)C1`, in assay [1], the pEC50 is less than 4.70.

Turning to `Cn1ncc2cc(NC(=O)c3nn(C4CC5(CNC5)C4)c4ccc(-c5cn[nH]c5)cc34)ccc21`, the pEC50 in assay [1] is less than 4.70.

As to `Cn1cc(-c2ccc3c(c2)c(-c2ccc4c(cnn4C)c2)nn3C2CC3(CNC3)C2)cn1`, in assay [1], the negative-log EC50 (pEC50) is less than 4.70.

In the case of `C=CC(=O)N1CC2(CC(n3nc(C(=O)Nc4ccc5[nH]ncc5c4)c4cc(-c5cn[nH]c5)ccc43)C2)C1`, the negative-log EC50 (pEC50) in [1] is less than 4.70.

On to `C=CC(=O)N1CC2(CC(n3nc(C(=O)Nc4ccc5c(cnn5C)c4)c4cc(-c5cn[nH]c5)ccc43)C2)C1`, for which the outcome in assay [2], in assay [3], in assay [7] and in assay [9] was inactive. The pIC50 in [4] is 5.22; in assay [5], 5.02; in [12], 5.04. The pEC50 in assay [1] was 5.82. Further, the outcome in assay [6], in [8], in assay [10], in assay [11] and in assay [13] was Active.

With `C=CC(=O)N1CC2(CC(n3nc(C(=O)Nc4ccc5[nH]ncc5c4)c4ccccc43)C2)C1`, the pEC50 in assay [1] was less than 4.70.

As to `C=CC(=O)N1CC2(CC(n3nc(C(=O)N4CCc5cc(OC)ccc5C4)c4ccccc43)C2)C1`, in [1], the pEC50 was less than 4.70.

In the case of `Cn1ncc2cc(-c3nn(C4CC5(CNC5)C4)c4ccc(-c5cn[nH]c5)cc34)ccc21`, the pEC50 in assay [1] is less than 4.70.

In the case of `CCC(=O)N1CC2(CC(n3nc(C(=O)Nc4ccc5c(cnn5C)c4)c4cc(-c5cn[nH]c5)ccc43)C2)C1`, the pEC50 in [1] was 5.36.

For the molecule `C=CC(=O)N1CC2(CC(n3nc(C(=O)Nc4ccc5cnn(C)c5c4)c4cc(-c5cn[nH]c5)ccc43)C2)C1`, the pEC50 in assay [1] is 5.26.

On to `C=CC(=O)N1CC2(CC(n3nc(-c4ccc5c(cnn5C)c4)c4cc(-c5c[nH]nc5C)c(Cl)cc43)C2)C1`, for which the negative logarithm of the EC50 (pEC50) in [1] was 4.85. Moreover, the Activity entry in assay [14] is “Dose-Dependent Effect”.

Consider `C=CC(=O)N1CC2(CC(n3nc(C(=O)N4CCCc5cc(OC)ccc54)c4ccccc43)C2)C1`, for which, in [1], the negative logarithm of the EC50 (pEC50) is less than 4.70.
